Structures are written as SMILES.

The subject of data set [1] is L02. The data set can be described thus: Induction of cell cycle arrest in human L02 cells assessed as G0/G1 phase accumulation at 24 uM by PI staining based flow cytometry analysis (reference value: 53.77 %). The conditions noted are these: l02, 24 µM. On the technique in general: Flow cytometry measures light scatter and fluorescence of single cells or particles in a stream.

Data set [2] relates to L02. The data set can be described thus: Induction of cell cycle arrest in human L02 cells assessed as G2/M phase accumulation at 24 uM by PI staining based flow cytometry analysis (reference value: 8 %). As to conditions: l02, 24 µM.
The subject of data set [3] is L02. The data set can be described thus: Induction of cell cycle arrest in human L02 cells assessed as G2/M phase accumulation at 26 uM by PI staining based flow cytometry analysis (reference value: 8 %). The conditions noted are these: l02, 26 µM.
The test system of data set [4] is L02. The data set can be described thus: Induction of cell cycle arrest in human L02 cells assessed as G0/G1 phase accumulation at 26 uM by PI staining based flow cytometry analysis (reference value: 53.77 %). The conditions noted are these: l02, 26 µM.
In data set [5] the test system is L02. The data set can be described thus: Induction of cell cycle arrest in human L02 cells assessed as G2/M phase accumulation at 18 uM by PI staining based flow cytometry analysis (reference value: 8 %). As to conditions: l02, 18 µM.
Data set [6] has as its system L02. The data set can be described thus: Induction of cell cycle arrest in human L02 cells assessed as G0/G1 phase accumulation at 18 uM by PI staining based flow cytometry analysis (reference value: 53.77 %). As to conditions: l02, 18 µM.
The subject of data set [7] is L02. The data set can be described thus: Induction of apoptosis in human L02 cells assessed as early apoptotic cells at 18 uM by annexin-V-FITC/PI staining based flow cytometry analysis (reference value: 3.81 %). Type of data set: cell-based. The conditions noted are these: l02, 18 µM.
Data set [8] relates to L02. The data set can be described thus: Cytotoxicity against human L02 cells by MTT assay. Type of data set: cell-based. For orientation: Tetrazolium assays rely on reduction of a dye to a coloured formazan, in cell work by metabolically active cells.
The subject of data set [9] is L02. The data set can be described thus: Cytotoxicity against human L02 cells assessed as increase in LDH leakage by LDH assay. Format: cell-based. (LDH leaks from cells whose membrane has failed.)
Data set [10] relates to L02. The data set can be described thus: Induction of apoptosis in human L02 cells assessed as late apoptotic cells at 18 uM by annexin-V-FITC/PI staining based flow cytometry analysis (reference value: 0.92 %). Type of data set: cell-based. As to conditions: l02, 18 µM.
Data set [11] has as its system L02. The data set can be described thus: Induction of apoptosis in human L02 cells assessed as early apoptotic cells at 26 uM by annexin-V-FITC/PI staining based flow cytometry analysis (reference value: 3.81 %). The conditions noted are these: l02, 26 µM. Type of data set: cell-based.
For data set [12], the system named is L02. The data set can be described thus: Induction of cell cycle arrest in human L02 cells assessed as S phase accumulation at 18 uM by PI staining based flow cytometry analysis (reference value: 38.23 %). The conditions noted are these: l02, 18 µM.
The test system of data set [13] is L02. The data set can be described thus: Induction of apoptosis in human L02 cells assessed as early apoptotic cells at 24 uM by annexin-V-FITC/PI staining based flow cytometry analysis (reference value: 3.81 %). The conditions noted are these: l02, 24 µM. Format: cell-based.
Data set [14] deals with L02. The data set can be described thus: Induction of cell cycle arrest in human L02 cells assessed as S phase accumulation at 24 uM by PI staining based flow cytometry analysis (reference value: 38.23 %). As to conditions: l02, 24 µM.
A short description of data set [15]: Hemolytic activity in rabbit erythrocytes. Type of data set: ADME, cell-based, Oryctolagus cuniculus, Erythrocyte. The conditions noted are these: read-out: HD50 (the source's name).
Data set [16] is described as follows: Oil-water partition coefficient, logP of compound. Type of data set: physicochemical.
Data set [17] relates to L02. The data set can be described thus: Induction of cell cycle arrest in human L02 cells assessed as S phase accumulation at 26 uM by PI staining based flow cytometry analysis (reference value: 38.23 %). As to conditions: l02, 26 µM.
Data set [18] deals with L02. The data set can be described thus: Induction of apoptosis in human L02 cells assessed as late apoptotic cells at 26 uM by annexin-V-FITC/PI staining based flow cytometry analysis (reference value: 0.92 %). Format: cell-based. As to conditions: l02, 26 µM.
For data set [19], the system named is L02. The data set can be described thus: Induction of apoptosis in human L02 cells assessed as late apoptotic cells at 24 uM by annexin-V-FITC/PI staining based flow cytometry analysis (reference value: 0.92 %). Type of data set: cell-based. The conditions noted are these: l02, 24 µM.
In data set [20] the test system is L02. The data set can be described thus: Induction of apoptosis in human L02 cells assessed as early apoptotic cells at 10 uM by annexin-V-FITC/PI staining based flow cytometry analysis (reference value: 3.81 %). Type of data set: cell-based. The conditions noted are these: l02, 10 µM.
Data set [21] relates to L02. The data set can be described thus: Induction of cell cycle arrest in human L02 cells assessed as G2/M phase accumulation at 6 uM by PI staining based flow cytometry analysis (reference value: 8 %). As to conditions: l02, 6 µM.
Data set [22] concerns L02. The data set can be described thus: Induction of cell cycle arrest in human L02 cells assessed as S phase accumulation at 6 uM by PI staining based flow cytometry analysis (reference value: 38.23 %). The conditions noted are these: l02, 6 µM.
Data set [23] relates to L02. The data set can be described thus: Induction of apoptosis in human L02 cells assessed as late apoptotic cells at 10 uM by annexin-V-FITC/PI staining based flow cytometry analysis (reference value: 0.92 %). Type of data set: cell-based. As to conditions: l02, 10 µM.
For data set [24], the system named is L02. The data set can be described thus: Induction of cell cycle arrest in human L02 cells assessed as G2/M phase accumulation at 10 uM by PI staining based flow cytometry analysis (reference value: 8 %). The conditions noted are these: l02, 10 µM.
Data set [25] relates to L02. The data set can be described thus: Induction of cell cycle arrest in human L02 cells assessed as S phase accumulation at 8 uM by PI staining based flow cytometry analysis (reference value: 38.23 %). As to conditions: l02, 8 µM.
In data set [26] the test system is L02. The data set can be described thus: Induction of apoptosis in human L02 cells assessed as late apoptotic cells at 8 uM by annexin-V-FITC/PI staining based flow cytometry analysis (reference value: 0.92 %). Type of data set: cell-based. The conditions noted are these: l02, 8 µM.
For data set [27], the system named is L02. The data set can be described thus: Induction of apoptosis in human L02 cells assessed as early apoptotic cells at 6 uM by annexin-V-FITC/PI staining based flow cytometry analysis (reference value: 3.81 %). Format: cell-based. As to conditions: l02, 6 µM.
The subject of data set [28] is L02. The data set can be described thus: Induction of cell cycle arrest in human L02 cells assessed as G2/M phase accumulation at 8 uM by PI staining based flow cytometry analysis (reference value: 8 %). As to conditions: l02, 8 µM.
Data set [29] has as its system L02. The data set can be described thus: Induction of cell cycle arrest in human L02 cells assessed as G0/G1 phase accumulation at 8 uM by PI staining based flow cytometry analysis (reference value: 53.77 %). As to conditions: l02, 8 µM.
The subject of data set [30] is L02. The data set can be described thus: Induction of cell cycle arrest in human L02 cells assessed as G0/G1 phase accumulation at 10 uM by PI staining based flow cytometry analysis (reference value: 53.77 %). The conditions noted are these: l02, 10 µM.
Data set [31] concerns L02. The data set can be described thus: Induction of apoptosis in human L02 cells assessed as early apoptotic cells at 8 uM by annexin-V-FITC/PI staining based flow cytometry analysis (reference value: 3.81 %). The conditions noted are these: l02, 8 µM. Format: cell-based.
Data set [32] deals with L02. The data set can be described thus: Induction of cell cycle arrest in human L02 cells assessed as S phase accumulation at 10 uM by PI staining based flow cytometry analysis (reference value: 38.23 %). As to conditions: l02, 10 µM.
The subject of data set [33] is L02. The data set can be described thus: Induction of apoptosis in human L02 cells assessed as late apoptotic cells at 6 uM by annexin-V-FITC/PI staining based flow cytometry analysis (reference value: 0.92 %). Type of data set: cell-based. As to conditions: l02, 6 µM.
Data set [34] relates to L02. The data set can be described thus: Induction of cell cycle arrest in human L02 cells assessed as G0/G1 phase accumulation at 6 uM by PI staining based flow cytometry analysis (reference value: 53.77 %). As to conditions: l02, 6 µM.

For `C[C@@H]1O[C@@H](O[C@H]2[C@H](O[C@H]3CC[C@@]4(C)[C@@H](CC[C@]5(C)[C@@H]4CC=C4[C@@H]6CC(C)(C)CC[C@]6(C(=O)O)CC[C@]45C)[C@]3(C)CO)OC[C@H](O[C@@H]3O[C@H](CO)[C@@H](O)[C@H](O)[C@H]3O)[C@@H]2O)[C@H](O)[C@H](O)[C@H]1O` [HEDERACOLCHISIDE A], the Activity in data set [1] came to 7.96%; in [2], 61.63%; in data set [3], 8%; in data set [4], 61.72%; in data set [5], 1.47%; in data set [6] it was 58.3%. Further, the Activity was 13.7% in data set [7]; “Toxic” in data set [9]; 4.61% in data set [10]; 2.2% in [11]; 40.23% in [12]; 15.9% in data set [13]. In addition, the Activity in data set [14] came out at 30.41%; in data set [17], 30.28%; in [18] it was 94.9%; in data set [19] it was 10.3%. The compound further had a half-maximal inhibitory concentration (IC50) in [8] of 21.1 µM. Also, in [15], the HC50 is 6.83 µM. The logP in [16] was determined as 0.115.
As for `C[C@@H]1O[C@@H](O[C@H]2[C@H](O[C@H]3CC[C@]4(C)[C@H]5CC=C6[C@@H]7CC(C)(C)CC[C@]7(C(=O)O)CC[C@@]6(C)[C@]5(C)CC[C@H]4C3(C)C)OC[C@H](O)[C@@H]2O[C@@H]2O[C@H](CO)[C@@H](O)[C@H](O)[C@H]2O)[C@H](O)[C@H](O)[C@H]1O`, the Activity in data set [20] turned out to be 2.79%; in [21], 8%; in [22], 33.43%; in data set [23], 89.3%; in data set [24] it was 2%; in data set [25] it was 38.34%. In addition, the Activity is listed as 27.9% in data set [26]; 6.87% in [27]; 4.8% in [28]; “Toxic” in data set [9]; 56.86% in data set [29]; 50.68% in [30]. The Activity in data set [31] turned out to be 13.4%; in data set [32] it was 47.32%; in data set [33] it was 2.91%; in data set [34] it was 58.57%. Further, the IC50 in data set [8] came out at 7.49 µM. The HC50 in data set [15] worked out at 3.6 µM. For the same compound, in [16], the lipophilicity (logP) is 0.318.
For the compound `C[C@@H]1O[C@@H](O[C@H]2[C@H](O[C@H]3CC[C@@]4(C)[C@@H](CC[C@]5(C)[C@@H]4CC=C4[C@@H]6CC(C)(C)CC[C@]6(C(=O)O)CC[C@]45C)[C@]3(C)CO)OC[C@H](O)[C@@H]2O)[C@H](O)[C@H](O)[C@H]1O` [ALPHA-HEDERIN], the Activity in [1] stood at 59.52%; in data set [2], 8%; in data set [3], 6.72%; in data set [4], 52.42%; in [5], 8%; in data set [6], 61%. Also, the Activity is given as 16.84% in data set [7]; “Toxic” in data set [9]; 8.18% in data set [10]; 1.98% in [11]; 31% in data set [12]; 17% in [13]. In addition, the Activity in [14] amounted to 32.48%; in data set [17] it was 40.88%; in data set [18], 94.2%; in data set [19], 15.5%. The compound also showed an IC50 in data set [8] of 21 µM. Further, the HC50 in [15] was determined as 9.04 µM. In data set [16], this compound came in with a logP of 0.0672.

A word on the IC50: it is the concentration at which inhibition is half-maximal. Read a high IC50 as weaker potency in that assay. The logP is a log measure of how a compound divides between an organic and an aqueous phase.

The values are drawn from ChEMBL document CHEMBL4819123, “Pulchinenosides: Correlation of surface activity-cytotoxicity and hepatocyte apoptosis mechanism study” (Bioorg Med Chem Lett, 2021).
